According to patent US12024510B2, “Pyrazolopyridine-diamides, their use as insecticide and processes for preparing the same” (PI INDUSTRIES LTD., priority 2017, dated 2024):

How the values were obtained:
Type in all cases: in vivo
Helicoverpa armigera = Helicoverpa armigera diet incorporation method; conditions: third instar larvae, dead and moribund combined, 96 h after release
Procedure, shortened: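 500 ppm stock of compound milled with surfactant and zirconia beads to average particle size below 2 μm, dispersed in DM water, diluted as needed, and mixed into semi-synthetic diet at about 50° C. Single starved third-instar larvae per cell, held at 25° C., 70% RH; dead plus moribund larvae scored as percent mortality at 96 h.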

Plutella xylostella = test: whole plant or invertebrate; conditions: foliar, cabbage leaf dip, second instar larvae, dead and moribund combined, 72 h after release
Procedure, shortened: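 Compounds milled with zirconia beads into surfactant dispersion (500 ppm stock), diluted in 0.01% Triton-X. Cabbage leaves dipped 10 s, shade-dried 20 min; one second-instar larva per cell, 25 °C, 70% RH. Mortality (dead plus moribund) scored at 72 h.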

Spodoptera litura = Spodoptera litura diet incorporation method; conditions: third instar larvae, dead and moribund combined, 96 h after release
Procedure: Test Solutions were Prepared According to the Procedure Described Herein Below (500 PPM):
• 1. Eppendorf Vortex mixer (ThermoMixer C) and 1.5 mL Eppendorf tubes • 2. Zirconia (Zirconium-Yttrium) beads having diameter of 0.8 to 1.0 mm • 3. Microscope • 4. Beaker 100 mL • 5. Micro-pipette Reagents: • 1. Surfactant Solution • 2. De-mineralized (DM) Water • 1. Weigh 10 mg of the compound of the present invention to be tested in an Eppendorf Tube. • 2. Add 200 mg of the Surfactant Solution into the tube. • 3. Add 600 mg of Zirconia beads into the above mixture. • 4. Fix the tube in Eppendorf Vortex mixer and start vortexing at 2000 rpm. • 5. Mix on Vortex mixer for 30 minutes. After 30 minutes, observe the sample over a microscope at 400× resolution. • 6. If the Maximum particle size is more than 5 μm or average particle size is more than 2 μm or the particle size distribution is uneven, continue vortexing for another 30 minutes and again check the particle size using the microscope. Continue till the average particle size is below 2 microns. • 7. When the required particle size is achieved, add 1.0 mL DM water into the tube, close the cap, shake the tube thoroughly and transfer the contents, along with the beads, into a beaker. • 8. To rinse the tube, add another 1.0 mL of DM water into the tube, close the cap, shake well and transfer this into the same beaker. • 9. Repeat Step no. 8 one more time so that the tube is rinsed well and the compound of the present invention to be tested is transferred to the beaker. • 10. Add 16.8 mL of DM water into the beaker and stir well. • 11. The homogeneous dispersion can then be decanted into a glass vial, immediately, to separate the Zirconia beads. • 12. Immediately use this sample for biological testing. • 13. Further dilutions can be prepared by taking appropriate quantity of the aliquot of Step 10, immediately after stirring, and diluting as per requirement. The sample solution must be well mixed just before biological testing.
Diet incorporation method was used, in which semi-synthetic diet was incorporated into the test solution when the temperature is approximately 50° C. in the bioassay containers and stirred thoroughly for properly mixing and then was allowed to cool for 30 min. The solidified diet was cut into equal pieces, and then each piece was transferred in one cell in Bio-assay trays. A single third instar starved larva was released into each of these cells of bioassay trays and the tray was covered with the lid. The bio-assay trays were kept under laboratory conditions at a temperature of 25° C. and Relative Humidity of 70%. Observations on dead, moribund and live larvae were recorded at 96 h after the release of larvae. Percent mortality was calculated by combining dead and moribund larvae. The following compound numbers

Row | SMILES | mortality at 300 ppm (Helicoverpa armigera) [%] | mortality at 300 ppm (Plutella xylostella) [%] | mortality at 300 ppm (Spodoptera litura) [%]
1 | Cc1cc2ccnn2c(C(=O)NC(C)C)c1NC(=O)c1cc(OCC(F)(F)F)nn1-c1ncccc1Cl [Compound 12, 6-(1-(3-chloropyridin-2-yl)-3-(2,2,2-trifluoroethoxy)-1H-pyrazole-5-carboxamido)-N-isopropyl-5-methylpyrazolo[1,5-a]pyridine-7-carboxamide] | > 70 | > 70 | > 70
2 | C#CCNC(=O)c1c(NC(=O)c2cc(Br)nn2-c2ncccc2Cl)c(C)cc2ccnn12 [Compound 36, 6-(3-bromo-1-(3-chloropyridin-2-yl)-1H-pyrazole-5-carboxamido)-5-methyl-N-(prop-2-yn-1-yl)pyrazolo[1,5-a]pyridine-7-carboxamide] | > 70 | > 70 | > 70
3 | COc1cc(C(=O)Nc2c(C)cc3ccnn3c2C(=O)NCC2CCOCC2)n(-c2ncccc2Cl)n1 [Compound 201, 6-(1-(3-chloropyridin-2-yl)-3-methoxy-1H-pyrazole-5-carboxamido)-5-methyl-N-((tetrahydro-2H-pyran-4-yl)methyl)pyrazolo[1,5-a]pyridine-7-carboxamide] | > 70 | > 70 | > 70
4 | CNC(=O)c1c(NC(=O)c2cc(N3CC(F)(F)C3)nn2-c2ncccc2Cl)c(C)cc2ccnn12 [Compound 68, 6-(1-(3-chloropyridin-2-yl)-3-(3,3-difluoroazetidin-1-yl)-1H-pyrazole-5-carboxamido)-N,5-dimethylpyrazolo[1,5-a]pyridine-7-carboxamide] | > 70 | > 70 | > 70
5 | CCCNC(=O)c1c(NC(=O)c2cc(Br)nn2-c2ncccc2Cl)c(C)cc2ccnn12 [Compound 21, 6-(3-bromo-1-(3-chloropyridin-2-yl)-1H-pyrazole-5-carboxamido)-5-methyl-N-propylpyrazolo[1,5-a]pyridine-7-carboxamide] | > 70 | > 70 | > 70
6 | Cc1cc2ccnn2c(C(=O)NCC#N)c1NC(=O)c1cc(OCC(F)(F)F)nn1-c1ncccc1Cl [Compound 15, 6-(1-(3-chloropyridin-2-yl)-3-(2,2,2-trifluoroethoxy)-1H-pyrazole-5-carboxamido)-N-(cyanomethyl)-5-methylpyrazolo[1,5-a]pyridine-7-carboxamide] | > 70 | > 70 | > 70
7 | C#CCNC(=O)c1c(NC(=O)c2cc(C(F)(F)F)nn2-c2ncccc2Cl)c(C)cc2ccnn12 [Compound 108, 6-(1-(3-chloropyridin-2-yl)-3-(trifluoromethyl)-1H-pyrazole-5-carboxamido)-5-methyl-N-(prop-2-yn-1-yl)pyrazolo[1,5-a]pyridine-7-carboxamide] | > 70 | > 70 | > 70
8 | COc1cc(C(=O)Nc2c(C)cc3ccnn3c2C(=O)NC(C)(C)CO)n(-c2ncccc2Cl)n1 [Compound 197, 6-(1-(3-chloropyridin-2-yl)-3-methoxy-1H-pyrazole-5-carboxamido)-N-(1-hydroxy-2-methylpropan-2-yl)-5-methylpyrazolo[1,5-a]pyridine-7-carboxamide] | > 70 | > 70 | > 70
9 | COc1cc(C(=O)Nc2c(C)cc3ccnn3c2C(=O)NCC2CCCC2)n(-c2ncccc2Cl)n1 [Compound 203, 6-(1-(3-chloropyridin-2-yl)-3-methoxy-1H-pyrazole-5-carboxamido)-N-(cyclopentylmethyl)-5-methylpyrazolo[1,5-a]pyridine-7-carboxamide] | > 70 | > 70 | > 70
10 | Cc1cc2ccnn2c(C(=O)NC(C)(C)CO)c1NC(=O)c1cc(Br)nn1-c1ncccc1Cl [Compound 196, 6-(3-bromo-1-(3-chloropyridin-2-yl)-1H-pyrazole-5-carboxamido)-N-(1-hydroxy-2-methylpropan-2-yl)-5-methylpyrazolo[1,5-a]pyridine-7-carboxamide] | > 70 | > 70 | > 70
11 | Cc1cc2ccnn2c(C(=O)NC(C)(C)C)c1NC(=O)c1cc(C(F)(F)F)nn1-c1ncccc1Cl [Compound 58, N-(tert-butyl)-6-(1-(3-chloropyridin-2-yl)-3-(trifluoromethyl)-1H-pyrazole-5-carboxamido)-5-methylpyrazolo[1,5-a]pyridine-7-carboxamide] | > 70 | > 70 | > 70
12 | Cc1cc2ccnn2c(C(=O)NC(C)C2CC2)c1NC(=O)c1cc(C(F)(F)F)nn1-c1ncccc1Cl (stereo not shown) [Compound 126, 6-(1-(3-chloropyridin-2-yl)-3-(trifluoromethyl)-1H-pyrazole-5-carboxamido)-N-(1-cyclopropylethyl)-5-methylpyrazolo[1,5-a]pyridine-7-carboxamide] | > 70 | > 70 | > 70
13 | COc1cc(C(=O)Nc2c(Cl)cc3ccnn3c2C(=O)NCC(F)(F)F)n(-c2ncccc2Cl)n1 [Compound 137, 5-chloro-6-(1-(3-chloropyridin-2-yl)-3-methoxy-1H-pyrazole-5-carboxamido)-N-(2,2,2-trifluoroethyl)pyrazolo[1,5-a]pyridine-7-carboxamide] | > 70 | > 70 | > 70
14 | CC(C)NC(=O)c1c(NC(=O)c2cc(C(F)(F)F)nn2-c2ncccc2Cl)c(Br)cc2ccnn12 [Compound 107, 5-bromo-6-(1-(3-chloropyridin-2-yl)-3-(trifluoromethyl)-1H-pyrazole-5-carboxamido)-N-isopropylpyrazolo[1,5-a]pyridine-7-carboxamide] | > 70 |  | > 70
15 | Cc1cc2ccnn2c(C(=O)NC2CC2)c1NC(=O)c1cc(Cn2nnc(C(F)(F)F)n2)nn1-c1ncccc1Cl [Compound 168, 6-(1-(3-chloropyridin-2-yl)-3-((5-(trifluoromethyl)-2H-tetrazol-2-yl)methyl)-1H-pyrazole-5-carboxamido)-N-cyclopropyl-5-methylpyrazolo[1,5-a]pyridine-7-carboxamide] | > 70 |  | > 70
16 | Cc1cc2ccnn2c(C(=O)NC(C)C2CC2)c1NC(=O)c1cc(Cn2nnc(C(F)(F)F)n2)nn1-c1ncccc1Cl (stereo not shown) [Compound 169, 6-(1-(3-chloropyridin-2-yl)-3-((5-(trifluoromethyl)-2H-tetrazol-2-yl)methyl)-1H-pyrazole-5-carboxamido)-N-(1-cyclopropylethyl)-5-methylpyrazolo[1,5-a]pyridine-7-carboxamide] | > 70 |  | > 70
17 | COc1cc(C(=O)Nc2c(Cl)cc3ccnn3c2C(=O)NC(C)(C)C)n(-c2ncccc2Cl)n1 [Compound 136, N-(tert-butyl)-5-chloro-6-(1-(3-chloropyridin-2-yl)-3-methoxy-1H-pyrazole-5-carboxamido)pyrazolo[1,5-a]pyridine-7-carboxamide] | > 70 |  | > 70
18 | CCCNC(=O)c1c(NC(=O)c2cc(C(F)(F)F)nn2-c2ncccc2Cl)c(C)cc2ccnn12 [Compound 92, 6-(1-(3-chloropyridin-2-yl)-3-(trifluoromethyl)-1H-pyrazole-5-carboxamido)-5-methyl-N-propylpyrazolo[1,5-a]pyridine-7-carboxamide] | > 70 |  | > 70
